Laboratory results reported in patent publication US11850279B2, “Platforms and methods for optimizing host antigen presentation and host antitumor and antipathogen immunity” (OHIO STATE INNOVATION FOUNDATION, priority 2016, dated 2023).

Legend:
tumor [1] = test: Anti-tumor activity of CABs (tumor size); assay type: in vivo, mouse
Experimental: The zero-length cross linker EDAC promotes attachment of amino-containing molecules to activated B cells, such as CABs (Chlamydia activated B cells). In the bottom panel, the antigen presenting ability of activated B cells (or other professional APCs) can be enhanced by crosslinking desired antigen (protein or peptide) with EDAC prior to in vivo administration.
“Low dose” is therefore defined as 2 μg-8 μg per kg in humans for Flt-3L, and 0.5 μg-2 μg per kg in humans for GM-CSF. “High dose” is defined as any amount above 8 μg/kg of Flt-3L and above 2 μg/kg of GM-CSF.

CD8^+ T cells = test: In vivo CD8+ T cell priming by activated B cells / CABs
Text: In other words, in vivo CD8^+ T cell priming is increased by antecedent treatment with Flt-3L and GM-CSF.
In vivo CD8^+ T cell priming is increased by CHX treatment of activated B cells prior to injection. CHX can boost antigen presenting capacity by increasing survival of activated B cells.
While in this model, GM-CSF/Flt-3L administration improved the efficacy of OVA-loaded B cell treatment, it is important to note that this cytokine treatment can improve the efficacy of intervention with other antigen-loaded antigen presenting cells (e.g. dendritic cell-based vaccine platforms).

NKT cells = conditions: human, in vivo; cited from earlier work
tumor [2] = conditions: cited from earlier work
endogenous DCs = test: Activation of endogenous DCs by α-GC loaded CABs; conditions: α-GC loading of CABs prior to in vivo administration
Text: In addition to GM-CSF and Flt-3L, antigen presenting capabilities of activated B cells (or other professional APCs) are enhanced by in vitro loading of APCs with α-GC prior to in vivo administration.

## CCN=C=NCCCN(C)C [EDAC, 1-ethyl 1-3-(3-dimethylaminopropyl)-carbodiimide]
Tumor [1]; peptide chemically conjugated to CABs using EDAC vs simple peptide pulsing/loading
  antitumor therapeutic activity: increases antitumor therapeutic activity

## C[C@@H]1C[C@@H]([C@H](O)CC2CC(=O)NC(=O)C2)C(=O)[C@@H](C)C1 [CHX, Cycloheximide]
CD8^+ T cells; CHX treatment of activated B cells prior to injection
  in vivo CD8^+ T cell priming: increased

## CCCCCCCCCCCCCCCCCCCCCCCCCC(=O)N[C@@H](CO[C@H]1O[C@H](CO)[C@H](O)[C@H](O)[C@H]1O)[C@H](O)[C@H](O)CCCCCCCCCCCCCC [α-GC, α-Galactosylceramide]
Tumor [1]; α-GC loaded activated B cells, effect dependent on NKT cells
  tumor size: more effectively reduce tumor size
NKT cells
  NKT cells in the peripheral blood of treated cancer patients: fell to undetectable levels
Tumor [2]
  tumor growth: inhibit tumor growth
Endogenous DCs
  activation of endogenous DCs: dramatically increase
CD8^+ T cells; α-GC-loaded CABs
  effector function of primed antigen-specific CD8^+ T cells: enhance
